Patent US4132731A, “Novel iodized isophthalamic acid compounds” (Schering Aktiengesellschaft, priority 1976, dated 1979)

Key:
[1] = general compatibility (LD50 i.v.) in rats; settings: rat, in vivo, iv
rats = experiment: neural compatibility: intracerebral compatibility / Valzelli value (ED50) in rats; settings: aqueous meglumine salt solutions, confidence range p 0.05
[2] = rats, aqueous meglumine salt solutions

SMILES	LD50 [1]	Valzelli Value (ED50) and Confidence Range (rats)	LD50 [1, 2]
CC(=O)Nc1c(I)c(C(=O)O)c(I)c(C(=O)NCCO)c1I [Compound 1, ioxithalamic acid, reference compound]	15200 mg/kg	12.3 (10.3-14.4) mg. I/kg.	
COCC(=O)Nc1c(I)c(C(=O)O)c(I)c(C(=O)NC(C)(C)CO)c1I [Compound 2, N-(2-hydroxy-1,1-dimethylethyl)-2,4,6-triiodo-5-methoxyacetamidoisophthalamic acid]		71.4 (61.4-99.9) mg. I/kg.	20000 mg/kg
COCC(=O)Nc1c(I)c(C(=O)O)c(I)c(C(=O)NCC(C)O)c1I (centres unmarked) [Compound 3, N-(2-Hydroxypropyl)-2,4,6-triiodo-5-methoxyacetamidoisophthalamic Acid]		44.6 (35.5-52.2) mg. I/kg.	19000 mg/kg
COCC(=O)Nc1c(I)c(C(=O)O)c(I)c(C(=O)NCCCO)c1I [Compound 4, N-(3-Hydroxypropyl)-2,4,6-triiodo-5-methoxyacetamidoisophthalamic Acid]		43.1 (32.6-50.9) mg. I/kg.	16300 mg/kg
COCC(=O)Nc1c(I)c(C(=O)O)c(I)c(C(=O)NCCO)c1I [Compound 5, N-(2-Hydroxyethyl)-2,4,6-triiodo-5-methoxyacetamidoisophthalamic Acid]		44.9 (36.7-51,8) mg. I/kg.	> 18600 mg/kg
COCC(=O)Nc1c(I)c(C(=O)O)c(I)c(C(=O)NC(C)(C)CCO)c1I [Compound 6, N-(3-hydroxy-1,1-dimethylpropyl)-2,4,6-triiodo-5-methoxyacetamidoisophthalamic acid]		67.2 (58.7-84.8) mg. I/kg.	18400 mg/kg
CC(=O)Nc1c(I)c(C(=O)O)c(I)c(C(=O)NCC(C)O)c1I (centres unmarked) [Compound 7]	18200 mg/kg	50.7 (44.3-56.6) mg. I/kg.	
